Source: ChEMBL document CHEMBL1157539, “Thousands of chemical starting points for antimalarial lead identification” (Nature, 2010)

Each compound was assayed on Plasmodium falciparum (assay: GSK_TCMDC: Inhibition of Plasmodium falciparum 3D7 in whole erythrocytes, using parasite LDH activity as an index of growth.). Details: not given.
Format: functional, organism-based

Point of comparison: `Oc1cccc(-c2nc3cc(C4=NC5CCCCC5N4)ccc3[nH]2)c1` (configuration not stated), XC50 530 nM. Against it:
- COc1ccc(C[C@@H](C)NC[C@H](O)c2cccc(Cl)c2)cc1F — 1.9-fold higher, 992 nM

Same assay, conditions: Plasmodium falciparum, 3D7

Point of comparison: `O=C(Nc1cccc(CN2CCCN(Cc3ccc4c(c3)OCO4)CC2)c1)c1cc2ccccc2s1`, XC50 990 nM. Against it:
- COCCNCc1ccc(-c2ccc(CN(C(=O)Nc3ccccc3)C3CCN(Cc4ccccc4)CC3)cc2)cc1 — within 1.5-fold, 746 nM
- C=CCn1c(Sc2ccc(C#N)c([N+](=O)[O-])c2)nnc1-c1cccc(Cl)c1 — 3.3-fold lower, 301 nM
- CC(C)Nc1cc(C(=O)N[C@@H](Cc2ccccc2)[C@H](O)CNC2CCCCC2)cc(N2CCCCS2(=O)=O)c1 — 9.6-fold lower, 103 nM
- CCCC(=O)Nc1ccc(OCCCN(Cc2cccc(C(F)(F)F)c2)c2ccc(C#N)c(C(F)(F)F)c2)cc1 — within 1.5-fold, 1090 nM
- COc1ccccc1CNC(=O)c1cc(OC)c(OC)cc1NC(=O)c1cccs1 — within 1.5-fold, 1440 nM
- CC(C)CN1CCN(CCNc2c3ccccc3nc3ccccc23)CC1 — within 1.5-fold, 818 nM
- COc1ccccc1NC(=O)Nc1ccc(-c2ccc(-c3nc4cc(C(F)(F)F)ccc4[nH]3)cc2)cc1 — 1.8-fold lower, 544 nM
- CCN(CC)CCNc1ccnc2ccc3ccccc3c12 — 4.5-fold lower, 219 nM
- NC(=O)C1CCN(Cc2ccc(-c3ccc(-c4nc5cc(F)ccc5[nH]4)cc3)cc2)CC1 — within 1.5-fold, 809 nM
- Cc1cccc2nc(-c3ccc(-c4ccc(NC(=O)C(C)CN(C)C)cc4)cc3)[nH]c12 (configuration not stated) — within 1.5-fold, 681 nM
- CC1CN(S(=O)(=O)c2ccc(NC(=O)c3cc(-c4ccccc4O)n[nH]3)cc2)CC(C)O1 (configuration not stated) — within 1.5-fold, 832 nM
- CC(O)C(C)(CO)NCc1ccc2c3c(cccc13)-c1ccccc1-2 (configuration not stated) — within 1.5-fold, 818 nM
- CCn1c(-c2nonc2N)nc2c(-c3cccc(NC(=O)Nc4ccc(C(F)(F)F)cc4)c3)ncc(OCCCN)c21 — within 1.5-fold, 1050 nM
- N=C(N)NC(=O)Nc1cc(Cl)c(Cl)c(Br)c1 — 1.6-fold lower, 611 nM
- O=C(Nc1nc(-c2cc(F)ccc2F)cs1)c1cncc(Br)c1 — within 1.5-fold, 1080 nM
- CC(=O)N1CCC(C(=O)Nc2ccc(-c3cccc(-c4nc5cc(C(F)(F)F)ccc5[nH]4)c3)cc2)CC1 — 4.1-fold lower, 239 nM
- CCCC(=O)c1cnc2cc(O)ccc2c1Nc1ccccc1C — 1.5-fold lower, 651 nM
- CN(C)CCNC(=O)c1ccc(-c2cnc3ccc(NCc4ccc(Cl)c(Cl)c4)nn23)cc1 — within 1.5-fold, 913 nM
- COC(=O)c1ccc2nc(-c3ccc(C(=O)NC4CCN(Cc5ccccc5)CC4)s3)[nH]c2c1 — within 1.5-fold, 688 nM
- COc1cccc(NC(=O)Cn2c(C)c(C#N)c3ccccc32)c1 — within 1.5-fold, 878 nM
- CC1CC(NCCCNc2cc(=O)c3ccccc3[nH]2)c2cc(Cl)c(Cl)c(Cl)c21 (configuration not stated) — within 1.5-fold, 724 nM
- O=C(Nc1ccc(Cl)cc1)Nc1cccc(CCNCc2ccccc2)c1 — within 1.5-fold, 728 nM
- CCn1cc2c3c(cc(C(=O)N[C@@H](Cc4ccccc4)[C@H](O)CNC4CCOCC4)cc31)N(C)S(=O)(=O)CC2 — 4.8-fold lower, 208 nM
- CC(=O)Nc1ccc(Nc2ncc([N+](=O)[O-])c(Nc3ccccc3C(N)=O)n2)cc1 — 2.7-fold lower, 366 nM
- COc1ccc(-c2nc(NC(=O)COc3ccc(C(C)=O)cc3)sc2C)cc1 — within 1.5-fold, 713 nM
- O=C(C1CCCCC1)N1CCOC(CCN2CCC(c3ccccc3)CC2)(c2ccc(Cl)c(Cl)c2)C1 (configuration not stated) — within 1.5-fold, 930 nM
- COc1ccc(-c2onc(C(F)(F)F)c2-c2ccc(Br)cc2)c(O)c1 — 4.2-fold lower, 237 nM
- O=C(C=Cc1ccc(Cl)c(Cl)c1)NCCCCCN1CCC(CCCNS(=O)(=O)c2cccc(C(F)(F)F)c2)CC1 — 2.1-fold lower, 477 nM
- Oc1ccc(Cl)cc1CN1CCC2(CCCN(CC3CCC3)C2)C1 (configuration not stated) — 2.7-fold lower, 368 nM
- O=S(=O)(c1ccc(NC(S)=NN=Cc2ccccn2)cc1)N1CCCCC1 — within 1.5-fold, 720 nM
- CC(C)c1ccc(O)cc1Nc1ccnc2ccc(C(F)(F)F)cc12 — within 1.5-fold, 675 nM
- COc1ccc(-c2ccccc2CNC2Cc3ccccc3C2)cc1S(=O)(=O)NCCN1CCCC1 — within 1.5-fold, 870 nM
- O=C(Cc1c[nH]cn1)Nc1ccc(-c2ccc(-c3nc4cc(C(F)(F)F)ccc4[nH]3)s2)cc1 — 1.5-fold lower, 657 nM
- CC(C)C1c2ccc(O)cc2CC2C(=O)N(C3CCCCC3)C(=O)N21 (configuration not stated) — within 1.5-fold, 884 nM
- Cc1cccc2nc(-c3ccc(-c4cccc(NC(=O)Nc5ccc(Cl)c(Cl)c5)c4)s3)[nH]c12 — 1.7-fold lower, 594 nM
- COc1cccc2c(N/N=C/c3ccc([N+](=O)[O-])cc3)ccnc12 — within 1.5-fold, 888 nM
- Cc1cccc(C)c1N1CCN(C2CCC(NC(=O)c3cc4ccccc4[nH]3)CC2)CC1 (configuration not stated) — 1.6-fold lower, 601 nM
- N#Cc1cnc(Nc2ccc(Oc3ccccc3)cc2)nc1Nc1cccc(S(N)(=O)=O)c1 — 1.8-fold lower, 555 nM
- OCC1CCN(Cc2cccc(-c3cccc(-c4nc5cc(C(F)(F)F)ccc5[nH]4)c3)c2)CC1 — 2-fold lower, 506 nM
- O=C(Nc1ccc(Br)cc1)Nc1ccc(Cn2ncc(N3CCCNCC3)c(Cl)c2=O)cc1 — within 1.5-fold, 1140 nM
- O=C(Nc1ccc(Oc2ccccc2)cc1)N(Cc1ccc(-c2ccc(CN3CCNCC3)cc2)cc1)C1CCN(Cc2ccccc2)CC1 — within 1.5-fold, 886 nM
- O=[N+]([O-])c1cccc(C(Nc2ccccn2)c2ccc3cccnc3c2O)c1 (configuration not stated) — within 1.5-fold, 1330 nM
- NC(=O)c1c(Cl)nc2ccccc2c1Cl — within 1.5-fold, 960 nM
- CN(C)c1ccc(/C=C2\S/C(=N\c3ccccc3)N(c3ccccc3)C2=O)cc1[N+](=O)[O-] — within 1.5-fold, 778 nM
- COc1ccc(C2CCN(CCCCNC(=O)c3ccc(NC(=O)c4ccc(Cl)cc4)cc3)CC2)c(C)c1 — within 1.5-fold, 747 nM
- O=C(Cc1cccc(Cl)c1)Nc1ccc(N2CCC(NCc3ccc4ncccc4c3)CC2)cc1 — within 1.5-fold, 1230 nM
- Cc1cc(-c2cnc(N)c(-c3ccc(N4CCN(C)CC4)cc3)c2)cc(C)c1O — within 1.5-fold, 1170 nM
- CCC(=O)Nc1nnc(Cc2ccc(OC)c(OC)c2)s1 — within 1.5-fold, 910 nM
- COc1ccc(NC(=O)CCNc2cc(C)nc(NCc3ccccc3C)n2)cc1 — within 1.5-fold, 1070 nM
- CCOC(=O)c1c(CN(CC)CC)n(-c2ccccc2)c2cc(Br)c(O)cc12 — within 1.5-fold, 998 nM
- O=C(Nc1ccc(Br)cc1)c1cc(Br)ccc1NS(=O)(=O)c1cc(C(F)(F)F)cc(C(F)(F)F)c1 — within 1.5-fold, 885 nM
- CCOc1cc(Cc2cnc(N)nc2N)cc(OCC)c1OCCCCC(=O)OC — 22-fold lower, 44.8 nM
- CCCc1cc(C(=O)N[C@@H](Cc2ccccc2)[C@H](O)CNC2CCOCC2)c(F)c(N2CCCCS2(=O)=O)c1 — 6-fold lower, 166 nM
- O=C(/C=C/c1ccc(Cl)c(Cl)c1)NCCCCCN1CCC(NC(=S)Nc2ccc(Cl)cc2)CC1 — 2.2-fold lower, 443 nM
- O=C(C=Cc1ccc(Cl)c(Cl)c1)NCCCCCN1CCC(CCCNC(=O)/C=C/c2ccccc2)CC1 — 1.7-fold lower, 592 nM
- O=[N+]([O-])c1cccc(CNC2CCN(Cc3ccc(-c4ccccc4)cc3)CC2)c1 — 4.3-fold lower, 231 nM
- COc1cccc(-c2c(C#N)c(N)nc3c2c(C)nn3-c2ccccc2)c1O — 3.5-fold lower, 282 nM
- O=S(=O)(Nc1cccc(CCN2CCC(N3CCCCC3)CC2)c1)c1ccc(Oc2ccccc2)nc1 — within 1.5-fold, 928 nM
- COc1ccc2c(ccc3c2ncc2c(=O)n(-c4ccccc4)[nH]c23)c1 — 1.9-fold lower, 520 nM
- CC(C)c1ccc(-c2noc(SCC(=O)N(C)c3ccc(F)cc3)n2)cc1 — within 1.5-fold, 1170 nM
- CC(C)Cc1ccc(N2CCN(CCCCNC(=O)c3ccc(NC(=O)c4ccc(Cl)c(Cl)c4)cc3)CC2)cc1 — within 1.5-fold, 1200 nM
- CCC(C)NCC(O)(c1ccc(Cl)cc1)c1ccc(Cl)cc1 (configuration not stated) — within 1.5-fold, 843 nM
- CN(C)CCCOc1ccc(-c2csc(NC(=N)NCc3ccccc3)n2)cc1 — 3.6-fold lower, 278 nM
- COc1ccc2nccc([C@@H](O)CN3CCC(NCc4cc5c(Cl)cccc5[nH]4)CC3)c2c1 — 6.4-fold lower, 155 nM
- CC1(C)CNCc2cc(NC(=O)/C=C/c3ccc(Cl)cc3)ccc21 — within 1.5-fold, 1180 nM
- Cc1ccc(Cl)cc1NC(=O)c1c(-c2ccccc2Cl)noc1C — 5.2-fold lower, 192 nM
- CC(=O)N(Cc1ccc(CC(C)NCCc2cccc(Cl)c2)cc1)Cc1ccc(CC(C)NCCc2cccc(Cl)c2)cc1 (configuration not stated) — within 1.5-fold, 783 nM
- c1cncc(-c2cc(N3CCCCC3)nc(-c3ccncc3)n2)c1 — within 1.5-fold, 767 nM
- CN(CCCNc1ccc(C(=O)Nc2ccc(C(F)(F)F)cc2)cc1[N+](=O)[O-])Cc1ccccc1 — 4.3-fold lower, 229 nM
- Oc1ccc2[nH]c(-c3cccc(F)c3)nc2c1CN1CCC(O)(c2ccccc2)CC1 — within 1.5-fold, 994 nM
- CCCC(C)c1ccc(N2C(N)=NC(N)=NC2(C)C)cc1 (configuration not stated) — 160-fold lower, 6.27 nM
- COc1ccc2nccc(N3CCC(CCNCc4ccc5c(n4)NC(=O)CS5)CC3)c2n1 — 4.4-fold lower, 227 nM
- CCOc1ccc(Nc2nc(N)c3ccccc3n2)cc1 — within 1.5-fold, 1150 nM
- O=C(Nc1ccc(-c2nc3ccccc3[nH]2)cc1)c1cccc(S(=O)(=O)N2CCOCC2)c1 — within 1.5-fold, 902 nM
- O=S(=O)(ON=C1CCc2ccccc21)c1ccc(Cl)cc1 — within 1.5-fold, 1310 nM
- O=C(NCC1CCC(C(=O)NC2CCCc3ccccc32)CC1)c1ccc(O)c(-c2ccc(Cl)c(Cl)c2)c1 (configuration not stated) — within 1.5-fold, 1020 nM
- C=C[C@H]1CN2CC[C@@H]1C[C@H]2[C@H](O)c1cc(-c2ccc(F)cc2)nc2ccc(OC)cc12 — 5.9-fold lower, 169 nM
- Cc1ccccc1C1CCN(C2CCC(NC(=O)c3cc4cc(C(C)C)ccc4[nH]3)CC2)CC1 (configuration not stated) — within 1.5-fold, 695 nM
- Cc1ccc2c(-c3ccc([N+](=O)[O-])o3)cc(C)nc2c1 — 23-fold lower, 43.7 nM
- O=C(Nc1cccc(Cl)c1Cl)N[C@H]1CCN(CCCCCNC(=O)C2CC2c2ccc(Cl)c(Cl)c2)C1 (some centres not stated) — within 1.5-fold, 1280 nM
- COc1cc2c(cc1O)[C@@H]1[C@H](O)[C@@H](O)C=C3CCN(C2)[C@H]31 [PSEUDOLYCORINE] — within 1.5-fold, 991 nM
- Cc1cc(N[C@@H](CC(C)C)C(=O)NCCc2ccccc2)nc(NCCc2ccc(F)cc2)n1 — within 1.5-fold, 771 nM
- CCNc1cc(C(=O)N[C@@H](Cc2ccccc2)[C@H](O)CN[C@@H](C)c2cccc(OC)c2)cc(N2CCCC2=O)c1 — within 1.5-fold, 769 nM
- Cc1nc(C)c(-c2ccc(C(=O)c3ccc(Cl)cc3)cc2)c(O)c1Cl — 1.9-fold lower, 535 nM
- O=C(NCC1CC1)C1CCN(C(c2ccccc2)c2nc3ccccc3s2)CC1 (configuration not stated) — within 1.5-fold, 1020 nM
- COc1ccc2nccc([C@@H](O)CN3CCC(NC(=O)c4nc(Cl)c(Cl)c(N)c4Cl)CC3)c2c1 — within 1.5-fold, 1300 nM
- COc1ccc2nccc([C@@H](O)CN3CCC(NCc4ccc5c(c4)NC(=O)CS5)CC3)c2c1 — 1.7-fold lower, 567 nM
- CCc1ccc(-n2cc(C(=O)c3cc(Br)ccc3O)cc(C#N)c2=O)cc1 — within 1.5-fold, 797 nM
- COc1ccc2nccc([C@@H](O)CN3CCC(NCc4cc5ccccc5nn4)CC3)c2c1 — within 1.5-fold, 1200 nM
- CCc1nc(N)nc(N)c1-c1ccc2c(c1)CCCC2 — 5.1-fold lower, 196 nM
- Cc1cc(N2CCC(N(C)C)C2)nc(Nc2ccc(Cl)cc2)n1 (configuration not stated) — 1.9-fold lower, 517 nM
- COc1ccccc1CCC(C)(C)NC(=O)CC(CCc1ccccc1)Nc1ccc(C#N)c2ccccc12 (configuration not stated) — within 1.5-fold, 919 nM
- CC[C@H]1CN2CCc3cc(OC)c(OC)cc3[C@@H]2C[C@@H]1C[C@H]1NCCc2cc(OC)c(OC)cc21 [EMETINE] — 4.6-fold lower, 214 nM
- Cc1ccc(CC(C)NCC(O)c2cccc(C(F)(F)F)c2)cc1 (configuration not stated) — within 1.5-fold, 981 nM
